Laboratory results reported in publication PMC10619443, “Structural snapshots of Mycobacterium tuberculosis enolase reveal dual mode of 2PG binding and its implication in enzyme catalysis” (IUCrJ, 2023).

Target: T1, MtEno (Mycobacterium tuberculosis, UniProt P9WNL1)
T1 construct: gene eno
T1 sequence (P9WNL1 whole entry): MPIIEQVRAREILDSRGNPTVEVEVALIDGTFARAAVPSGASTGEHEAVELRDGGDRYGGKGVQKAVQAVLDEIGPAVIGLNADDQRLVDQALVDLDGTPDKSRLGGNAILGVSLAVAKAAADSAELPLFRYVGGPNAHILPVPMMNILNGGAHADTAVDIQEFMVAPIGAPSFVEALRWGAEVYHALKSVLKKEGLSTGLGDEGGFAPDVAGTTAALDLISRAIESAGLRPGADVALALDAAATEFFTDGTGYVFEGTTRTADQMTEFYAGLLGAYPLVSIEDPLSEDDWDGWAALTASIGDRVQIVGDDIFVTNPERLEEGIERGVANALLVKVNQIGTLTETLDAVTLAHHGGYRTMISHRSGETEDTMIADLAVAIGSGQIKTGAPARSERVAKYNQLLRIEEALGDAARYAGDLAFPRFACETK

For `O=C(O)[C@@H](CO)OP(=O)(O)O` [2PG, 2-phosphoglycerate], the X-ray crystal structure was “Of the two structures of MtEno-2PG, one harbored the 2PG-canonical pose”.
